Measured values: ChEMBL document CHEMBL1201862, “PubChem BioAssay data set” (2004)
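Five compound concentrations were applied to cells in 96-well plates for 48 hours; endpoints were derived by simple linear interpolation of the resulting dose-response curve. GI50 is the concentration that inhibits growth by half.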 Calls of active or inactive are those of the source. Rule as the data show it: active = GI50 up to about 1.1 µM and inactive = higher.

What was measured:
Test in all cases: NCI tumour cell line growth inhibition, 48 h
[1] = system: RXF 631
[2] = system: OVCAR-3
[3] = system: SK-MEL-5
[4] = system: IGROV-1
[5] = system: SNB-78
[6] = system: HCT-15
[7] = system: UO-31
[8] = system: U-251
[9] = system: SR
[10] = system: DMS-114
[11] = system: SF-539
[12] = system: KM12
[13] = system: M14
[14] = system: MOLT-4
[15] = system: Malme-3M
[16] = system: OVCAR-8
[17] = system: NCI-H23
[18] = system: EKVX
[19] = system: ACHN
[20] = system: LOX IMVI
[21] = system: HCT-116
[22] = system: SK-OV-3
[23] = system: HOP-92
[24] = system: SF-295
[25] = system: KM-20L2
[26] = system: SW-620
[27] = system: M19-MEL
[28] = system: DLD-1
[29] = system: SK-MEL-28
[30] = system: HCC 2998
[31] = system: A549
[32] = system: DMS-273
[33] = system: LXFL 529
[34] = system: SF-268
[35] = system: UACC-257
[36] = system: A498
[37] = system: SNB-19
[38] = system: 786-0
[39] = system: RPMI-8226
[40] = system: OVCAR-5
[41] = system: HOP-18
[42] = system: UACC-62
[43] = system: SN12C
[44] = system: SNB-75
[45] = system: CCRF-CEM
[46] = system: RXF 393
[47] = system: COLO 205
[48] = system: TK-10
[49] = system: HL-60
[50] = system: HT-29
[51] = system: K562
[52] = system: NCI-H522
[53] = system: SK-MEL-2
[54] = system: XF498
[55] = system: NCI-H460
[56] = system: OVCAR-4
[57] = system: CAKI-1
[58] = system: HOP-62
[59] = system: NCI-H226

C[Si](C)(C)/C=C\CCO
GI50 [1]: > 100 µM (inactive)
GI50 [2]: > 100 µM (inactive)
GI50 [3]: > 100 µM (inactive)
GI50 [4]: > 100 µM (inactive)
GI50 [5]: > 100 µM (inactive)
GI50 [6]: > 100 µM
GI50 [7]: > 100 µM (inactive)
GI50 [8]: > 100 µM (inactive)
GI50 [9]: > 100 µM (inactive)
GI50 [10]: > 100 µM (inactive)
GI50 [11]: > 100 µM (inactive)
GI50 [12]: > 100 µM (inactive)
GI50 [13]: > 100 µM (inactive)
GI50 [14]: > 100 µM (inactive)
GI50 [15]: > 100 µM (inactive)
GI50 [16]: > 100 µM (inactive)
GI50 [17]: > 100 µM (inactive)
GI50 [18]: > 100 µM (inactive)
GI50 [19]: > 100 µM (inactive)
GI50 [20]: > 100 µM (inactive)
GI50 [21]: > 100 µM (inactive)
GI50 [22]: > 100 µM (inactive)
GI50 [23]: > 100 µM (inactive)
GI50 [24]: > 100 µM (inactive)
GI50 [25]: > 100 µM (inactive)
GI50 [26]: > 100 µM (inactive)
GI50 [27]: > 100 µM (inactive)
GI50 [28]: > 100 µM (inactive)
GI50 [29]: > 100 µM (inactive)
GI50 [30]: > 100 µM (inactive)
GI50 [31]: > 100 µM (inactive)
GI50 [32]: > 100 µM (inactive)
GI50 [33]: > 100 µM (inactive)
GI50 [34]: > 100 µM (inactive)
GI50 [35]: > 100 µM (inactive)
GI50 [36]: > 100 µM (inactive)
GI50 [37]: > 100 µM (inactive)
GI50 [38]: > 100 µM (inactive)
GI50 [39]: > 100 µM (inactive)
GI50 [40]: > 100 µM (inactive)
GI50 [41]: > 100 µM (inactive)
GI50 [42]: > 100 µM (inactive)
GI50 [43]: > 100 µM (inactive)
GI50 [44]: > 100 µM (inactive)
GI50 [45]: > 100 µM (inactive)
GI50 [46]: > 100 µM (inactive)
GI50 [47]: > 100 µM (inactive)
GI50 [48]: > 100 µM (inactive)
GI50 [49]: > 100 µM (inactive)
GI50 [50]: > 100 µM (inactive)
GI50 [51]: > 100 µM (inactive)
GI50 [52]: > 100 µM (inactive)
GI50 [53]: > 100 µM (inactive)
GI50 [54]: > 100 µM (inactive)
GI50 [55]: > 100 µM (inactive)

COS(=O)c1cc(Cl)cc(Cl)c1OC(=O)CSSCC(=O)Oc1c(Cl)cc(Cl)cc1S(=O)OC (stereo not drawn)
GI50 [1]: 20.3 µM (inactive)
GI50 [2]: 23.9 µM (inactive)
GI50 [3]: 17.4 µM (inactive)
GI50 [4]: 19.4 µM (inactive)
GI50 [5]: 22.9 µM (inactive)
GI50 [6]: 14.4 µM
GI50 [7]: 13.2 µM (inactive)
GI50 [8]: 5.92 µM (inactive)
GI50 [10]: 15.8 µM (inactive)
GI50 [11]: 13.8 µM (inactive)
GI50 [12]: 14.8 µM (inactive)
GI50 [13]: 18.8 µM (inactive)
GI50 [14]: 17.1 µM (inactive)
GI50 [15]: 15.2 µM (inactive)
GI50 [56]: 19.3 µM (inactive)
GI50 [16]: 20.5 µM (inactive)
GI50 [17]: 11.2 µM (inactive)
GI50 [18]: 20 µM (inactive)
GI50 [19]: 21 µM (inactive)
GI50 [20]: 16 µM (inactive)
GI50 [57]: 26.6 µM (inactive)
GI50 [22]: 51.3 µM (inactive)
GI50 [23]: 22.4 µM (inactive)
GI50 [24]: 19.5 µM (inactive)
GI50 [25]: 27.3 µM (inactive)
GI50 [26]: 28.4 µM (inactive)
GI50 [27]: 20 µM (inactive)
GI50 [28]: 15.3 µM (inactive)
GI50 [29]: 12.4 µM (inactive)
GI50 [30]: 21.6 µM (inactive)
GI50 [31]: 13.2 µM (inactive)
GI50 [32]: 12.4 µM (inactive)
GI50 [33]: 21 µM (inactive)
GI50 [34]: 7.26 µM (inactive)
GI50 [35]: 23.2 µM (inactive)
GI50 [36]: 15.5 µM (inactive)
GI50 [37]: 5.24 µM (inactive)
GI50 [38]: 22.4 µM (inactive)
GI50 [39]: 12.5 µM (inactive)
GI50 [40]: 16.7 µM (inactive)
GI50 [58]: > 10 µM (inactive)
GI50 [41]: 21.6 µM (inactive)
GI50 [42]: 6.97 µM (inactive)
GI50 [43]: 10.2 µM (inactive)
GI50 [44]: 24.7 µM (inactive)
GI50 [45]: 19.6 µM (inactive)
GI50 [46]: 15.3 µM (inactive)
GI50 [47]: 22.6 µM (inactive)
GI50 [48]: 34.5 µM (inactive)
GI50 [49]: 22.4 µM (inactive)
GI50 [50]: 30.4 µM (inactive)
GI50 [51]: 20.4 µM (inactive)
GI50 [52]: 14.2 µM (inactive)
GI50 [53]: 17.3 µM (inactive)
GI50 [55]: 8.69 µM (inactive)

N#CC(C(=O)/C(=N\NC(N)=O)C(C#N)c1ccc(Cl)cc1)c1ccc(Cl)cc1 (stereo not drawn)
GI50 [1]: > 100 µM (inactive)
GI50 [2]: > 100 µM (inactive)
GI50 [3]: > 100 µM (inactive)
GI50 [4]: > 100 µM (inactive)
GI50 [5]: > 100 µM (inactive)
GI50 [6]: > 100 µM
GI50 [7]: > 100 µM (inactive)
GI50 [8]: > 100 µM (inactive)
GI50 [10]: > 100 µM (inactive)
GI50 [11]: > 100 µM (inactive)
GI50 [12]: > 100 µM (inactive)
GI50 [13]: > 100 µM (inactive)
GI50 [14]: > 100 µM (inactive)
GI50 [15]: > 100 µM (inactive)
GI50 [56]: > 100 µM (inactive)
GI50 [16]: > 100 µM (inactive)
GI50 [17]: > 100 µM (inactive)
GI50 [18]: > 100 µM (inactive)
GI50 [59]: > 100 µM (inactive)
GI50 [19]: > 100 µM (inactive)
GI50 [20]: > 100 µM (inactive)
GI50 [21]: > 100 µM (inactive)
GI50 [22]: > 100 µM (inactive)
GI50 [23]: 68.4 µM (inactive)
GI50 [24]: > 100 µM (inactive)
GI50 [25]: > 100 µM (inactive)
GI50 [26]: > 100 µM (inactive)
GI50 [27]: > 100 µM (inactive)
GI50 [28]: > 100 µM (inactive)
GI50 [29]: > 100 µM (inactive)
GI50 [31]: > 100 µM (inactive)
GI50 [33]: > 100 µM (inactive)
GI50 [34]: > 100 µM (inactive)
GI50 [35]: > 100 µM (inactive)
GI50 [36]: > 100 µM (inactive)
GI50 [37]: > 100 µM (inactive)
GI50 [38]: > 100 µM (inactive)
GI50 [39]: > 100 µM (inactive)
GI50 [40]: > 100 µM (inactive)
GI50 [58]: > 100 µM (inactive)
GI50 [41]: > 100 µM (inactive)
GI50 [42]: > 100 µM (inactive)
GI50 [43]: > 100 µM (inactive)
GI50 [45]: > 100 µM (inactive)
GI50 [46]: > 100 µM (inactive)
GI50 [47]: > 100 µM (inactive)
GI50 [49]: > 100 µM (inactive)
GI50 [50]: > 100 µM (inactive)
GI50 [51]: > 100 µM (inactive)
GI50 [52]: > 100 µM (inactive)
GI50 [53]: > 100 µM (inactive)
GI50 [54]: > 100 µM (inactive)
GI50 [55]: > 100 µM (inactive)
